{"source": "ChEMBL document CHEMBL1132129", "about": "“Stereoselective synthesis of a new muscarinic M3 receptor antagonist, J-104129” (Bioorg Med Chem Lett, 1999)", "biological_target": "Muscarinic acetylcholine receptor M3 (Homo sapiens, UniProt P20309)", "sequence (P20309 whole entry)": "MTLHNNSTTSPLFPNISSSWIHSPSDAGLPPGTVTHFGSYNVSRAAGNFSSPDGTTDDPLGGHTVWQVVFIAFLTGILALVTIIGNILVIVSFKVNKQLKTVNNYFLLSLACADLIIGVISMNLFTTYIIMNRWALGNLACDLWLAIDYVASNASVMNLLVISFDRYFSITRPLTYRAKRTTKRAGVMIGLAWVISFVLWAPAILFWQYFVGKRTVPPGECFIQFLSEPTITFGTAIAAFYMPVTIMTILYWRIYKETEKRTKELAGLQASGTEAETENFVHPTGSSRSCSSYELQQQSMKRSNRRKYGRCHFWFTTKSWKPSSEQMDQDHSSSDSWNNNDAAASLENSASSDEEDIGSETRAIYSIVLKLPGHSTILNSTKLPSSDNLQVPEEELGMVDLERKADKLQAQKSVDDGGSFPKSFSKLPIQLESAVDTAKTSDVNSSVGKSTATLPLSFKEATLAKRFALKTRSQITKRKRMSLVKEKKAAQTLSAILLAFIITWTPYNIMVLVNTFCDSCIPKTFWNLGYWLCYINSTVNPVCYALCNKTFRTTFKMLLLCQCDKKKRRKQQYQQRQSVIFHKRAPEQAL", "experiment": "Binding affinity for human cloned Muscarinic M3 receptors", "data": [{"smiles": "CC(C)=CCCN1CCC(NC(=O)[C@](O)(c2ccccc2)C2CCCC2)CC1", "values": [{"measurement": "Ki", "value": 4.2, "unit": "nM"}]}]}
